# Legend:
# HeLa cells = experiment: Cellular SENP inhibition: SUMOylated proteins in HeLa cells by Western blot; type: cell-based; details: increasing concentrations, 48 h
# SENP2 = target: T1, SENP2 (Homo sapiens, UniProt Q9HC62); experiment: DUB-Glo bioluminescent peptide substrate assay, SENP2; type: biochemical; details: read-out: SENP2 IC50
# T1 sequence (Q9HC62 364-589): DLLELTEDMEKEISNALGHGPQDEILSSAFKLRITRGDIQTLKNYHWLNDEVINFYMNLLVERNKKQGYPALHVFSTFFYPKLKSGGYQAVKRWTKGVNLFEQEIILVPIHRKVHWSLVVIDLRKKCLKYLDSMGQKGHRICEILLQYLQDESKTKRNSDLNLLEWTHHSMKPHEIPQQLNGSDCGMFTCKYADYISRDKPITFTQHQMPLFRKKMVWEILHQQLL
# SENP7 = target: T2, SENP7 (Homo sapiens, UniProt Q9BQF6); experiment: DUB-Glo bioluminescent peptide substrate assay, SENP7; type: biochemical; details: read-out: SENP7 IC50
# T2 sequence (Q9BQF6 760-1050 limits assumed): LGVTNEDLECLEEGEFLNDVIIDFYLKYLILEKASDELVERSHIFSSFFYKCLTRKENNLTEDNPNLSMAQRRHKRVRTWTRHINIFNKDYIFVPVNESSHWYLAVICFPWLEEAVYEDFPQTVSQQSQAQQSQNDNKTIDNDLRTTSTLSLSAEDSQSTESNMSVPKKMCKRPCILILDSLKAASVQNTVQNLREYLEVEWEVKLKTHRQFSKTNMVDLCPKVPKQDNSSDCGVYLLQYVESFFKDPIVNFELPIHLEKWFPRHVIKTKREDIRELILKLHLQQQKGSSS
Structure (SMILES),accumulation of SUMO-1 conjugates in cells (HeLa cells),accumulation of SUMO-2/3 conjugates in cells (HeLa cells),IC50 (SENP2) [µM],IC50 (SENP7) [nM]
Nc1ccc2ccccc2c1N=Nc1ccc(/C=C/c2ccc(N=Nc3c(N)ccc4ccccc34)cc2S(=O)(=O)O)c(S(=O)(=O)O)c1 [SPI-01],less significant effects,SUMO-2/3 conjugates accumulated in cells and this accumulation correlated with inhibitor concentration,,
Cc1cc(N)ccc1/N=N/c1cc(S(=O)(=O)O)c2cccc(S(=O)(=O)O)c2c1 [SPI-07],,,> 60,1900 ± 2200
Nc1c(N=Nc2ccccc2)cc(S(=O)(=O)O)c2ccccc12 [SPI-08],,,,2800 ± 1600
Nc1ccc2cc(S(=O)(=O)O)cc(S(=O)(=O)O)c2c1N=Nc1ccc(S(=O)(=O)O)cc1 [SPI-09],,,,1900 ± 2100

# From publication PMC3840147 (ACS chemical biology, 2013)
